Legend:
[1] = tested on: human lung cancer cells (A549); experiment: Tumor cell proliferation inhibition (CCK-8), A549; format: cell-based; settings: 48 h; for inhibition at 100 µM: read-out: Anti-proliferative activity at 100 μM by concentration (%) A549 (tumor cell inhibition rate)
Method: (§1) Human colon cancer cells (HCT116), human lung cancer cells (A549).
(§2) 1) The test cells in a logarithmic growth phase were trypsinized and counted, inoculated in a 96-well culture plate at a concentration of 5×10^4/mL, 100 μL per well (5×10^3 cells per well), and incubated at 37° C. in a 5% CO2 incubator for 24 h.
(§3) 2) A drug to be tested was diluted to different concentrations with McCoy'S 5A or RPMI 1640 complete medium. The experimental group was replaced with a culture solution containing different concentrations of the tested samples, and the control group was replaced with a culture solution containing the same volume of solvent (DMSO). Three parallel wells were set up in each group, and the culture was continued for 48 h in a 5% CO2 incubator at 37° C.
(§4) HCT116 cells used the McCoy'S 5A complete medium, and A549 cells used the RPMI 1640 complete medium.
(§5) 3) 10 μL of a CCK-8 solution was added to each well, incubated at 37° C. for 1 h to 4 h, and an absorbance (OD value) of each well at 490 nm was measured with a microplate reader.
(§6) 4) A survival rate and an inhibition rate were calculated with the following formulas:
(§7) Cell survival rate=[(As−Ab)/(Ac−Ab)]×100%
(§8) Inhibition rate=[(Ac−As)/(Ac−Ab)]×100%
(§9) An S-type dose-survival curve was plotted using GraphPad Prism 7.0 software and a nonlinear regression model, and IC50 values were calculated. • As: absorbance of the experimental well (medium containing cells, CCK-8, and the drug to be tested) • Ac: absorbance of control wells (medium containing cells, CCK-8, and solvent (DMSO)) • Ab: absorbance of blank wells (medium without cells and drug to be tested, CCK-8)

[2] = tested on: Human colon cancer cells (HCT116); experiment: Tumor cell proliferation inhibition (CCK-8), HCT116; format: cell-based; settings: for inhibition at 100 µM: HCT-116, 100 μM of the compound, read-out: Anti-proliferative activity at 100 μM by concentration (%) HCT116 (tumor cell inhibition rate)
Method: as §1, §2, §3, §4, §5, §6, §7, §8, §9

[3] = Homo sapiens, 100 μM of the compound

| IC50 [1] | IC50 ([2]; 48 h) | Structure (SMILES) | inhibition at 100 µM [1, 3] | IC50 ([1]; Homo sapiens) | inhibition at 100 µM ([2]; Homo sapiens, 48 h) | IC50 ([2]; Homo sapiens, HCT-116, 48 h) | Anti-proliferative activity at 100 μM by concentration (%) A549 (tumor cell inhibition rate) ([1]; 100 μM of the compound) | Anti-proliferative activity at 100 μM by concentration (%) HCT116 (tumor cell inhibition rate) ([2]; 100 μM of the compound, 48 h) |
| --- | --- | --- | --- | --- | --- | --- | --- | --- |
| – | – | C=C[C@]1(C)CC[C@@H](C(=C)C/C=C/c2ccc(-n3cncn3)cc2)C[C@H]1C(=C)C [Compound 4] | 97.5 ± 0.4% | 57.2 ± 2.95 µM | 99.8 ± 0.08% | 50.9 ± 0.8 µM | – | – |
| – | – | C=C[C@]1(C)CC[C@@H](C(=C)C/C=C/c2ccc(C(=O)OCC[C@@H](C)CCC=C(C)C)cc2)C[C@H]1C(=C)C [Compound 6] | 14.4 ± 0.5% | – | 21.7 ± 0.8% | – | – | – |
| – | – | C=C[C@]1(C)CC[C@@H](C(=C)C/C=C/c2ccc(C(=O)OCCOc3ccc(/C(=C(/CCCl)c4ccccc4)c4ccccc4)cc3)cc2)C[C@H]1C(=C)C [Compound 10] | 40.4 ± 0.6% | – | 13.5 ± 0.3% | – | – | – |
| 227 ± 1.2 µM | 782 ± 51 µM | C=C[C@]1(C)CC[C@@H](C(=C)C)C[C@H]1C(=C)C [β-elemene, reference compound] | – | – | – | – | 10.6 ± 0.5% | 0.6 ± 0.5% |
